Assay: dissolution rate of ketoprofen in 0.1 N HCl
Format: physicochemical
Details: granulated with microcrystalline cellulose

What does the source list for `CC(C(=O)O)c1cccc(C(=O)c2ccccc2)c1` (centres unmarked) [ketoprofen, Ketoprofen]?
dissolution rate of ketoprofen in 0.1N HCl (change after processing) (Example 1: ketoprofen ground/mixed with distilled water in TSGM, 200 rpm, 25° C., dried at 40° C.): increased two-fold; dissolution rate of ketoprofen in 0.1N HCl (change after processing) (Example 2: ketoprofen ground/mixed with 10% aqueous solution of Labrasol in TSGM): increased two-fold; dissolution rate of ketoprofen in 0.1N HCl (change after processing) (Example 3: ketoprofen ground/mixed with 10% aqueous solution of Tween 80 in TSGM): increased four-fold; dissolution rate of ketoprofen in 0.1N HCl (change after processing) (Example 4: ketoprofen ground/mixed with 10% aqueous solution of Capryol 90 in TSGM): increased two-fold; dissolution rate of ketoprofen in 0.1N HCl (change after processing) (Example 5: ketoprofen ground/mixed with 10% aqueous solution of polyvinylpyrrolidone in TSGM): increased three-fold

Reference: patent US7607596B1, “Process for enhancing the solubility of poorly soluble drugs” (Exxpharma, LLC, priority 2007, dated 2009)
